Measurements: patent publication US20210292272A1, “Salts of Zuclomiphene” (Apotex Inc., priority 2020, published 2021)

Assays:
[1] = PXRD study of crystalline form stability of uncapped samples in a 40° C./75% RH stability chamber; type: physicochemical; details: at least 4 weeks
Experimental: PXRD diffractograms were recorded on a Bruker-AXS D8 Discover powder X-ray diffractometer (Bruker-AXS, Karlsruhe, Germany). The X-rays were generated using an Incoatec Micro-focus X-ray source (IpSTube: Cu tube with λ=1.54060 Å) with a voltage of 50 kV and current of 1.00 mA, using a micro mask 0.3 mm plug-in pinhole microslit and a short UBC 45 mm long collimator with a 0.3 mm diameter. For each sample, one frame was collected using a still scan with a Pilatus 3R-100K-A area detector at the distance of 154.72 mm from the sample. Raw data were evaluated using the program DIFFRAC.EVA (Bruker-AXS, Karlsruhe, Germany).

[2] = Intrinsic dissolution rate (IDR) measurement, Wood apparatus; type: physicochemical; details: 900 mL distilled water, 37° C., 50 rpm
Experimental: Intrinsic dissolution rate (IDR) measurements were performed using a Wood apparatus (Pharma Test PT-DT8 instrument) having a bath temperature of 37° C. Samples were prepared by compressing 200-400 mg samples at 1.5 metric tons for 1 minute. A dissolution medium consisting of 900 mL distilled water, and rotation speed of 50 rpm, was used for each experiment.

[3] = test system: Men with Prostate Cancer on Androgen Deprivation Therapy; details: 50 mg of zuclomiphene citrate, interim Phase 2 results; cited from earlier work

Row | IDR (intrinsic dissolution rate) [2] | Substance | change in the crystalline form (PXRD) [1] | moderate to severe hot flashes, change from baseline [3]
1 | 3.75 mg min^−1 cm^−2 | zuclomiphene L-malate [zuclomiphene L-malate Form APO-I] | no change in the crystalline form occurred | –
2 | 2.37 mg min^−1 cm^−2 | zuclomiphene L-tartrate [zuclomiphene L-tartrate Form APO-I] | no change in the crystalline form occurred | –
3 | – | zuclomiphene citrate | – | statistically significant decrease
4 | – | zuclomiphene fumarate [zuclomiphene fumarate Form APO-I] | no change in the crystalline form occurred | –
5 | – | zuclomiphene phosphate [zuclomiphene phosphate Form APO-I] | no change in the crystalline form occurred | –
6 | – | zuclomiphene succinate [zuclomiphene succinate Form APO-I] | no change in the crystalline form occurred | –
7 | – | zuclomiphene sulphate [zuclomiphene sulphate Form APO-I] | no change in the crystalline form occurred | –
8 | – | zuclomiphene tosylate [zuclomiphene tosylate Form APO-I] | no change in the crystalline form occurred | –
